Reference: US10875876B2, “Cyclized sulfamoylarylamide derivatives and the use thereof as medicaments for the treatment of hepatitis B” (priority 2015, dated 2020)
Like-named read-outs stand apart in the source and are kept apart here.

Experiments:
HepG2 cells = assay: Cytotoxicity in HepG2 cells, Resazurin assay; settings: read-out: TOX-HepG2-4 d CC50; HepG2 cells incubated for 4 days, viability by Resazurin assay
HBV = assay: anti HBV activity, HepG2.117 cell line, intracellular HBV DNA by realtime PCR; assay type: cell-based; settings: HepG2.117 cell line (Tet-off), 3 days of treatment, intracellular HBV DNA quantified by realtime PCR, read-out: HBV-AVE-HepG2.117 EC50
Outline: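 Readout was intracellular HBV DNA by real-time PCR (HBV-specific primers and probe) after 3 days of compound exposure. Serial dilutions were tested in duplicate on HepG2.117 cells, a stable inducible HBV producer in which replication is switched on when doxycycline is absent.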

[1] = Cytotoxicity in HepG2 cells, Resazurin assay; settings: human, HepG2 cells, TOX-HepG2-4 d CC50 (μM), HepG2 cells incubated for 4 days, viability by Resazurin assay
[2] = Hepatitis B virus, HepG2.117, 72 h

Row | Compound | CC50 (HepG2 cells) [nM] | EC50 (HBV) [nM] | EC50 (HBV; [2]) [nM] | melting point [°C] | CC50 at 4 days [1] [µM]
1 | CC(NCC(F)(F)F)C1COc2c(cn(C)c2C(=O)Nc2ccc(F)c(C#N)c2)S(=O)(=O)N1 (single isomer, unassigned) [Compound 161b, N-(3-cyano-4-fluoro-phenyl)-7-methyl-1,1-dioxo-3-[1-(2,2,2-trifluoroethylamino)ethyl]-3,4-dihydro-2H-pyrrolo[3,4-b][1,4,5]oxathiazepine-6-carboxamide] | > 25000 | > 125 | – | – | –
2 | Cn1cc2c(c1C(=O)Nc1ccc(F)c(F)c1)OCC(C)(c1cnccn1)NS2(=O)=O (single isomer, unassigned) [Compound 145b, N-(3,4-difluorophenyl)-3,7-dimethyl-1,1-dioxo-3-pyrazin-2-yl-2,4-dihydropyrrolo[3,4-b][1,4,5]oxathiazepine-6-carboxamide] | > 25000 | 60 | – | – | –
3 | CCC1(C)COc2c(cn(C)c2C(=O)Nc2ccc(F)c(F)c2)S(=O)(=O)N1 (single isomer, unassigned) [Compound 134b, N-(3,4-difluorophenyl)-3-ethyl-3,7-dimethyl-1,1-dioxo-2,4-dihydropyrrolo[3,4-b][1,4,5]oxathiazepine-6-carboxamide] | > 25000 | 7 | – | – | –
4 | Cc1cc(CC2(C)COc3c(cn(C)c3C(=O)Nc3ccc(F)c(C(F)F)c3)S(=O)(=O)N2)n(C)n1 (single isomer, unassigned) [Compound 176b, N-[3-(difluoromethyl)-4-fluoro-phenyl]-3-[(2,5-dimethylpyrazol-3-yl)methyl]-3,7-dimethyl-1,1-dioxo-2,4-dihydropyrrolo[3,4-b][1,4,5]oxathiazepine-6-carboxamide] | > 25000 | – | – | – | –
5 | CC(NCC(F)(F)F)C1CCc2c(cn(C)c2C(=O)Nc2cc(F)c(F)c(F)c2)S(=O)(=O)N1 (single isomer, unassigned) [Compound 218b, 7-methyl-1,1-dioxo-3-[1-(2,2,2-trifluoroethylamino)ethyl]-N-(3,4,5-trifluorophenyl)-2,3,4,5-tetrahydropyrrolo[3,4-f]thiazepine-6-carboxamide] | > 25000 | 79 | – | – | –
6 | Cn1cc2c(c1C(=O)Nc1ccc(F)c(F)c1)OCC(C1CCOCC1)NS2(=O)=O (single isomer, unassigned) [Compound 89b, N-(3,4-difluorophenyl)-7-methyl-1,1-dioxo-3-tetrahydropyran-4-yl-3,4-dihydro-2H-pyrrolo[3,4-b][1,4,5]oxathiazepine-6-carboxamide] | > 25000 | 17 | – | – | –
7 | CCC(O)[C@H]1COc2c(cn(C)c2C(=O)Nc2ccc(F)c(C(F)F)c2)S(=O)(=O)N1 (stereo partly drawn) [Compound 124b, (3R)—N-[3-(difluoromethyl)-4-fluoro-phenyl]-3-(1-hydroxypropyl)-7-methyl-1,1-dioxo-3,4-dihydro-2H-pyrrolo[3,4-b][1,4,5]oxathiazepine-6-carboxamide] | > 25000 | 4 | – | – | –
8 | Cn1cc2c(c1C(=O)Nc1cc(F)c(F)c(F)c1)OCC(C)(CO)NS2(=O)=O (single isomer, unassigned) [Compound 214b, 3-(hydroxymethyl)-3,7-dimethyl-1,1-dioxo-N-(3,4,5-trifluorophenyl)-2,4-dihydropyrrolo[3,4-b][1,4,5]oxathiazepine-6-carboxamide] | > 25000 | 22 | – | – | –
9 | Cn1cc2c(c1C(=O)Nc1ccc(F)c(F)c1)OCC(C)(c1ncco1)NS2(=O)=O (single isomer, unassigned) [Compound 160b, N-(3,4-difluorophenyl)-3,7-dimethyl-3-oxazol-2-yl-1,1-dioxo-2,4-dihydropyrrolo[3,4-b][1,4,5]oxathiazepine-6-carboxamide] | > 25000 | 21 | – | – | –
10 | Cc1cccc(C2(C)COc3c(cn(C)c3C(=O)Nc3ccc(F)c(C(F)F)c3)S(=O)(=O)N2)n1 (single isomer, unassigned) [Compound 177b, N-[3-(difluoromethyl)-4-fluoro-phenyl]-3,7-dimethyl-3-(6-methyl-2-pyridyl)-1,1-dioxo-2,4-dihydropyrrolo[3,4-b][1,4,5]oxathiazepine-6-carboxamide] | > 25000 | – | 4 | – | –
11 | Cc1cc(CC2(C)COc3c(cn(C)c3C(=O)Nc3ccc(F)c(C#N)c3)S(=O)(=O)N2)no1 (single isomer, unassigned) [Compound 220b, N-(3-cyano-4-fluoro-phenyl)-3,7-dimethyl-3-[(5-methylisoxazol-3-yl)methyl]-1,1-dioxo-2,4-dihydropyrrolo[3,4-b][1,4,5]oxathiazepine-6-carboxamide] | > 25000 | 34 | – | – | –
12 | CC1COc2c(cn(C)c2C(=O)Nc2ccc(F)c(F)c2)S(=O)(=O)N1 (single isomer, unassigned) [Compound 14b, N-(3,4-difluorophenyl)-3,7-dimethyl-1,1-dioxo-3,4-dihydro-2H-pyrrolo-[3,4-b][1,4,5]oxathiazepine-6-carboxamide] | > 25000 | 78 | – | – | –
13 | CCC(O)[C@@H]1COc2c(cn(C)c2C(=O)Nc2ccc(F)c(C(F)F)c2)S(=O)(=O)N1 (single isomer, unassigned) [Compound 144b, N-[3-(difluoromethyl)-4-fluoro-phenyl]-3-(1-hydroxypropyl)-7-methyl-1,1-dioxo-3,4-dihydro-2H-pyrrolo[3,4-b][1,4,5]oxathiazepine-6-carboxamide] | > 25000 | 63 | – | – | –
14 | Cn1cc2c(c1C(=O)Nc1ccc(F)c(F)c1)OCC(C)(c1ncccn1)NS2(=O)=O (single isomer, unassigned) [Compound 153b, N-(3,4-difluorophenyl)-3,7-dimethyl-1,1-dioxo-3-pyrimidin-2-yl-2,4-dihydropyrrolo[3,4-b][1,4,5]oxathiazepine-6-carboxamide] | > 25000 | 60 | – | – | –
15 | Cn1cc2c(c1C(=O)Nc1ccnc(C(F)(F)F)c1)CCC(C(F)(F)F)NS2(=O)=O (single isomer, unassigned) [Compound 59b, 7-methyl-1,1-dioxo-3-(trifluoromethyl)-N-[2-(trifluoromethyl)-4-pyridyl]-2,3,4,5-tetrahydropyrrolo[3,4-f]thiazepine-6-carboxamide] | > 25000 | 140 | – | – | –
16 | Cn1cc2c(c1C(=O)Nc1ccc(F)c(Cl)c1)OC[C@H](C(O)C1CC1)NS2(=O)=O (single isomer, unassigned) [Compound 207b, N-(3-chloro-4-fluoro-phenyl)-3-[cyclopropyl(hydroxy)methyl]-7-methyl-1,1-dioxo-3,4-dihydro-2H-pyrrolo[3,4-b][1,4,5]oxathiazepine-6-carboxamide] | > 25000 | 5 | – | – | –
17 | CC(NCC(F)(F)F)C1COc2c(cn(C)c2C(=O)Nc2ccc(F)c(C#N)c2)S(=O)(=O)N1 (single isomer, unassigned) [Compound 161d, N-(3-cyano-4-fluoro-phenyl)-7-methyl-1,1-dioxo-3-[1-(2,2,2-trifluoroethylamino)ethyl]-3,4-dihydro-2H-pyrrolo[3,4-b][1,4,5]oxathiazepine-6-carboxamide] | > 25000 | 11 | – | – | –
18 | Cn1cc2c(c1C(=O)Nc1ccc(F)c(C(F)F)c1)OC[C@H](C(O)C1CC1)NS2(=O)=O (stereo partly drawn) [Compound 115b, (3R)-3-[cyclopropyl(hydroxy)methyl]-N-[3-(difluoromethyl)-4-fluoro-phenyl]-7-methyl-1,1-dioxo-3,4-dihydro-2H-pyrrolo[3,4-b][1,4,5]oxathiazepine-6-carboxamide] | > 25000 | 7 | – | – | –
19 | Cn1cc2c(c1C(=O)Nc1ccc(F)c(F)c1)OCC(C)(Cc1cccnc1)NS2(=O)=O (single isomer, unassigned) [Compound 199b, N-(3,4-difluorophenyl)-3,7-dimethyl-1,1-dioxo-3-(3-pyridylmethyl)-2,4-dihydropyrrolo[3,4-b][1,4,5]oxathiazepine-6-carboxamide] | > 25000 | 8 | – | – | –
20 | Cc1cc(CC2(C)COc3c(cn(C)c3C(=O)Nc3ccc(F)c(F)c3)S(=O)(=O)N2)n(C)n1 (single isomer, unassigned) [Compound 175b, N-(3,4-difluorophenyl)-3-[(2,5-dimethylpyrazol-3-yl)methyl]-3,7-dimethyl-1,1-dioxo-2,4-dihydropyrrolo[3,4-b][1,4,5]oxathiazepine-6-carboxamide] | > 25000 | 3 | – | – | –
21 | Cn1cc2c(c1C(=O)Nc1ccc(F)c(F)c1)OCC(C)(c1cnccn1)NS2(=O)=O (single isomer, unassigned) [Compound 145a, N-(3,4-difluorophenyl)-3,7-dimethyl-1,1-dioxo-3-pyrazin-2-yl-2,4-dihydropyrrolo[3,4-b][1,4,5]oxathiazepine-6-carboxamide] | – | 14 | – | 199.4 | > 25
22 | Cn1cncc1CC1(C)COc2c(cn(C)c2C(=O)Nc2ccc(F)c(F)c2)S(=O)(=O)N1 (stereo not drawn) [Compound 174, N-(3,4-difluorophenyl)-3,7-dimethyl-3-[(3-methylimidazol-4-yl)methyl]-1,1-dioxo-2,4-dihydropyrrolo[3,4-b][1,4,5]oxathiazepine-6-carboxamide] | – | – | 7 | 265.5 | > 25
23 | Cn1cc2c(c1C(=O)Nc1ccc(F)c(Br)c1F)CCC(C(C)(C)O)NS2(=O)=O (stereo not drawn) [Compound 179, N-(3-bromo-2,4-difluoro-phenyl)-3-(1-hydroxy-1-methyl-ethyl)-7-methyl-1,1-dioxo-2,3,4,5-tetrahydropyrrolo[3,4-f]thiazepine-6-carboxamide] | – | – | 21 | 236.8 | > 25
